Where two headings read alike, the source gives them in different places.
Tests used:
[1] = tested on: Salmonella typhimurium TA98; experiment: Ames antimutagenicity assay (preincubation); settings: for inhibition at 500 µM: Salmonella enterica, TYPHIMURIUM;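 on all read-outs here: test compound and mutagen preincubated 30 min at 37°C before adding bacteria, then His+ revertant colonies counted after 48 h plating, inhibition relative to mutagen-only versus negative-control revertants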
Protocol: (§1) In the preincubation experiment, test compounds and mutagen, each having a volume of 0.1 mL of varying concentrations, were preincubated at 37°C for 30 min and then 0.1 mL of 1 × 10^7 CFU/mL density of the bacterial culture was added, followed by the addition of 2.5 mL of top agar at 45°C (containing 0.5% NaCl and 0.6% agar) supplemented with 0.5 mM histidine-biotin. […] The combined solutions were vortexed and poured onto minimal glucose plates (40% glucose solution and Vogel Bonner medium). The plates were incubated at 37°C for 48 h and the numbers of histidine-independent revertants colonies were scored.
(§2) Survival of the bacteria was routinely monitored for each experiment. Parallel controls were run with compounds alone at all concentrations to test the possible toxicity. The concentrations of the test samples for investigating the antimutagenicity were 50, 100, 200, and 500 μM. […] All the test samples and mutagens were dissolved in DMSO (final conc., 0.01%). […] Plates were set up in triplicate for each concentration and the entire experiment was repeated three times. Inhibition of mutagenicity was expressed as percentage decrease of reverse mutation and calculated as (1) Percent inhibition=[(a−b)/(a−c)]×100, where a = number of histidine revertants induced by mutagen, b = number of histidine revertants induced by mutagen in the presence of test compound, and c = number of revertants induced in negative control.

[2] = tested on: Salmonella typhimurium TA100; experiment: Ames antimutagenicity assay (preincubation); settings: for inhibition at 50 µM / inhibition at 100 µM / inhibition at 250 µM / inhibition at 500 µM: Salmonella enterica, TYPHIMURIUM;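 on all read-outs here: compound and mutagen preincubated together 30 min at 37°C before bacteria added, then plates incubated 48 h at 37°C, inhibition relative to mutagen-alone revertants after subtracting the negative control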
Protocol: as §1, §2

## O=C1O[C@H]2[C@@H]3OC(=O)c4cc(O)c(O)c(O)c4-c4c(O)c(O)c5oc(=O)c6c(c(O)c(O)c7oc(=O)c4c5c76)-c4c(cc(O)c(O)c4O)C(=O)OC[C@H]3OC(O)[C@@H]2OC(=O)c2cc(O)c(O)c(O)c2-c2c1cc(O)c(O)c2O (mixture of isomers) [Punicalagin]
[1]; read-out: % inhibition of mutagenicity, TA 98, 500 μM + 2AF, S9
  inhibition at 500 µM: 81.4%
[1]; read-out: % inhibition of mutagenicity, TA 98, 500 μM + BP, S9
  inhibition at 500 µM: 78.8%
[1]; read-out: % inhibition of mutagenicity, TA 98, 500 μM + MMS, no S9
  inhibition at 500 µM: 71%
[1]; read-out: % inhibition of mutagenicity, TA 98, 500 μM + NaN3, no S9
  inhibition at 500 µM: 65.3%
[1]; TA 98, 50 μM + 2AF, S9
  Number of His+ revertants colonies/plate: 210.3 ± 10.7 colonies/plate
[1]; TA 98, 50 μM + BP, S9
  Number of His+ revertants colonies/plate: 138.0 ± 8.7 colonies/plate
[1]; TA 98, 50 μM + MMS, no S9
  Number of His+ revertants colonies/plate: 50.3 ± 1.8 colonies/plate
[1]; TA 98, 100 μM + 2AF, S9
  Number of His+ revertants colonies/plate: 172.3 ± 12.0 colonies/plate
[1]; TA 98, 100 μM + BP, S9
  Number of His+ revertants colonies/plate: 105.3 ± 9.0 colonies/plate
[1]; TA 98, 100 μM + MMS, no S9
  Number of His+ revertants colonies/plate: 45.3 ± 2.0 colonies/plate
[1]; TA 98, 100 μM + NaN3, no S9
  Number of His+ revertants colonies/plate: 47.3 ± 1.8 colonies/plate
[1]; TA 98, 250 μM + BP, S9
  Number of His+ revertants colonies/plate: 65.0 ± 6.8 colonies/plate
[1]; TA 98, 250 μM + MMS, no S9
  Number of His+ revertants colonies/plate: 39.7 ± 2.0 colonies/plate
[1]; TA 98, 250 μM + NaN3, no S9
  Number of His+ revertants colonies/plate: 40.7 ± 2.6 colonies/plate
[1]; TA 98, 500 μM + 2AF, S9
  Number of His+ revertants colonies/plate: 65.3 ± 4.1 colonies/plate
[1]; TA 98, 500 μM + BP, S9
  Number of His+ revertants colonies/plate: 52.7 ± 4.3 colonies/plate
[1]; TA 98, 500 μM + MMS, no S9
  Number of His+ revertants colonies/plate: 35.0 ± 2.1 colonies/plate
[1]; TA 98, 500 μM + MMS, no S9, 500 µM
  % inhibition of mutagenicity: 70.9%
[1]; TA 98, 500 μM + NaN3, no S9
  Number of His+ revertants colonies/plate: 36.0 ± 1.7 colonies/plate
[2]; read-out: % inhibition of mutagenicity, TA 100, 50 μM + 2AF, S9
  inhibition at 50 µM: 22.4%
[2]; read-out: % inhibition of mutagenicity, TA 100, 50 μM + BP, S9
  inhibition at 50 µM: 30.6%
[2]; read-out: % inhibition of mutagenicity, TA 100, 50 μM + MMS, no S9
  inhibition at 50 µM: 13.8%
[2]; read-out: % inhibition of mutagenicity, TA 100, 50 μM + NaN3, no S9
  inhibition at 50 µM: 11.3%
[2]; read-out: % inhibition of mutagenicity, TA 100, 100 μM + 2AF, S9
  inhibition at 100 µM: 43.8%
[2]; read-out: % inhibition of mutagenicity, TA 100, 100 μM + BP, S9
  inhibition at 100 µM: 48.3%
[2]; read-out: % inhibition of mutagenicity, TA 100, 100 μM + MMS, no S9
  inhibition at 100 µM: 30.8%
[2]; read-out: % inhibition of mutagenicity, TA 100, 100 μM + NaN3, no S9
  inhibition at 100 µM: 33.1%
[2]; read-out: % inhibition of mutagenicity, TA 100, 250 μM + BP, S9
  inhibition at 250 µM: 64%
[2]; read-out: % inhibition of mutagenicity, TA 100, 250 μM + MMS, no S9
  inhibition at 250 µM: 45.3%
[2]; read-out: % inhibition of mutagenicity, TA 100, 250 μM + NaN3, no S9
  inhibition at 250 µM: 54.6%
[2]; read-out: % inhibition of mutagenicity, TA 100, 500 μM + 2AF, S9
  inhibition at 500 µM: 83.1%
[2]; read-out: % inhibition of mutagenicity, TA 100, 500 μM + BP, S9
  inhibition at 500 µM: 84.5%
[2]; read-out: % inhibition of mutagenicity, TA 100, 500 μM + MMS, no S9
  inhibition at 500 µM: 66%
[2]; read-out: % inhibition of mutagenicity, TA 100, 500 μM + NaN3, no S9
  inhibition at 500 µM: 74.3%
[2]; TA 100, 50 μM + 2AF, S9
  Number of His+ revertants colonies/plate: 426.7 ± 28.3 colonies/plate
[2]; TA 100, 50 μM + BP, S9
  Number of His+ revertants colonies/plate: 530.3 ± 26.4 colonies/plate
[2]; TA 100, 50 μM + MMS, no S9
  Number of His+ revertants colonies/plate: 856.3 ± 13.1 colonies/plate
[2]; TA 100, 50 μM + NaN3, no S9
  Number of His+ revertants colonies/plate: 342.0 ± 4.7 colonies/plate
[2]; TA 100, 100 μM + 2AF, S9
  Number of His+ revertants colonies/plate: 358.0 ± 12.2 colonies/plate
[2]; TA 100, 100 μM + BP, S9
  Number of His+ revertants colonies/plate: 442.7 ± 31.4 colonies/plate
[2]; TA 100, 100 μM + MMS, no S9
  Number of His+ revertants colonies/plate: 722.0 ± 15.0 colonies/plate
[2]; TA 100, 100 μM + NaN3, no S9
  Number of His+ revertants colonies/plate: 301.7 ± 7.8 colonies/plate
[2]; TA 100, 250 μM + BP, S9
  Number of His+ revertants colonies/plate: 366.0 ± 20.2 colonies/plate
[2]; TA 100, 250 μM + MMS, no S9
  Number of His+ revertants colonies/plate: 601.3 ± 12.3 colonies/plate
[2]; TA 100, 250 μM + NaN3, no S9
  Number of His+ revertants colonies/plate: 254.3 ± 10.8 colonies/plate
[2]; TA 100, 500 μM + 2AF, S9
  Number of His+ revertants colonies/plate: 245.0 ± 9.6 colonies/plate
[2]; TA 100, 500 μM + BP, S9
  Number of His+ revertants colonies/plate: 270.7 ± 15.6 colonies/plate
[2]; TA 100, 500 μM + MMS, no S9
  Number of His+ revertants colonies/plate: 451.7 ± 15.6 colonies/plate
[2]; TA 100, 500 μM + NaN3, no S9
  Number of His+ revertants colonies/plate: 232.3 ± 9.4 colonies/plate

Source: article PMC4052943 (BioMed Research International, 2014)
